# Laboratory results as given in PMC5222590 (Structure(London, England:1993), 2017).
# Molecular target: T1, FusA (Streptococcus pneumoniae, UniProt A0A0H2URD6)
# T1 sequence (A0A0H2URD6 47-538): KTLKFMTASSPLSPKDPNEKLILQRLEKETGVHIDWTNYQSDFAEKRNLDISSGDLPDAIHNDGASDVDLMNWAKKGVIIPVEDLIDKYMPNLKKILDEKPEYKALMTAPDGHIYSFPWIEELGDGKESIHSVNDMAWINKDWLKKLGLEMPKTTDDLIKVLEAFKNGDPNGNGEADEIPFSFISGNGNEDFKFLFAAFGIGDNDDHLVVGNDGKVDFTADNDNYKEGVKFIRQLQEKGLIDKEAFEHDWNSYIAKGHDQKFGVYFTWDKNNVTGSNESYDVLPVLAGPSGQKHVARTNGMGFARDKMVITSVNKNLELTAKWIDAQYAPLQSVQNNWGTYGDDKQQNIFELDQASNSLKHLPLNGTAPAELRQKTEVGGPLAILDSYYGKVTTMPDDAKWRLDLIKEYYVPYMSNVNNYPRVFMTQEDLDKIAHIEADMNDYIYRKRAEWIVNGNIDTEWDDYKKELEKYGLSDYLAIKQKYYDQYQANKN
# Test: ITC
# Assay type: binding
# Details: pH 7.4, 0.15 M NaCl, 25 °C; 1:1
compound,measurement,value
"OC[C@H]1O[C@@](CO)(OC[C@@]2(OC[C@@]3(O[C@H]4O[C@H](CO)[C@@H](O)[C@H](O)[C@H]4O)O[C@H](CO)[C@@H](O)[C@@H]3O)O[C@H](CO)[C@@H](O)[C@@H]2O)[C@@H](O)[C@@H]1O [GF3, nystose]",KD,FusA had submicromolar affinity for fructofuranosyl-nystose and nystose
